Like-named read-outs stand apart in the source and are kept apart here.
Assays:
[1] = target: wild-type un-phosphorylated FGFR3 (Homo sapiens, UniProt P22607); test: FGFR Enzymatic Assay (FRET peptide phosphorylation), FGFR3
Experimental: (§1) The inhibitor potency of the exemplified compounds was determined in an enzyme discontinuous assay that measures peptide phosphorylation using FRET measurements to detect product formation. Inhibitors were serially diluted in DMSO and a volume of 0.2 μL was transferred to the wells of a 384-well plate. […] Appropriate controls (enzyme blank and enzyme with no inhibitor) were included on the plate. […] The 10 μL/well reaction concentration of the peptide substrate was 500 nM whereas the ATP concentration was maintained near or below the ATP Km. The ATP Km values were pre-determined in a separate series of experiments. The reaction plate was incubated at 25° C. for 1 hr and the reactions were ended with the addition of 5 μL/well of quench solution (50 mM Tris, 150 mM NaCl, 0.5 mg/mL BSA, pH 7.8; 45 mM EDTA, 600 nM staurosporin, with Perkin Elmer Lance Reagents at 3.75 nM Eu-antibody PY20 and 180 nM APC-Streptavidin). The plate was allowed to equilibrate for ˜10 minutes at ambient temperature before scanning on a PheraStar plate reader (BMG Labtech) instrument.
(§2) Either GraphPad prism or XLfit was used to analyze the data. The IC50 values were derived by fitting the data to a four parameter logistic equation producing a sigmoidal dose-response curve with a variable Hill coefficient. Prism equation: Y=Bottom+(Top-Bottom)/(1+10^((Log IC50-X)*Hill slope)); XLfit equation: Y=(A+((B−A)/(1+((X/C)^D)))) where X is the logarithm of inhibitor concentration and Y is the response.
(§3) GraphPad prism3 was used to analyze the data. The IC50 values were derived by fitting the data to the equation for a sigmoidal dose-response with a variable slope. Y=Bottom+(Top-Bottom)/(1+10^((Log IC50-X)*Hill Slope)) where X is the logarithm of concentration and Y is the response.

[2] = target: wild-type un-phosphorylated FGFR1 (Homo sapiens, UniProt P11362); test: FGFR Enzymatic Assay (FRET peptide phosphorylation), FGFR1; settings: pre-incubated for 4 hours
[3] = target: wild-type un-phosphorylated FGFR2 (Homo sapiens, UniProt P21802); test: FGFR Enzymatic Assay (FRET peptide phosphorylation), FGFR2
Experimental: as §1, §2, §3
The data in Table 1 was measured in wild-type un-phosphorylated FGFR1, FGFR2, FGFR3, and FGFR4 proteins.

[4] = FGFR1, wild-type un-phosphorylated FGFR1
[5] = read-out: FGFR2, wild-type un-phosphorylated FGFR2, pre-incubated for 4 hours
[6] = read-out: FGFR1, wild-type un-phosphorylated FGFR1
[7] = read-out: FGFR3, wild-type un-phosphorylated FGFR3, pre-incubated for 4 hours

wild-type un-phosphorylated FGFR1, sequence (P11362 22-822): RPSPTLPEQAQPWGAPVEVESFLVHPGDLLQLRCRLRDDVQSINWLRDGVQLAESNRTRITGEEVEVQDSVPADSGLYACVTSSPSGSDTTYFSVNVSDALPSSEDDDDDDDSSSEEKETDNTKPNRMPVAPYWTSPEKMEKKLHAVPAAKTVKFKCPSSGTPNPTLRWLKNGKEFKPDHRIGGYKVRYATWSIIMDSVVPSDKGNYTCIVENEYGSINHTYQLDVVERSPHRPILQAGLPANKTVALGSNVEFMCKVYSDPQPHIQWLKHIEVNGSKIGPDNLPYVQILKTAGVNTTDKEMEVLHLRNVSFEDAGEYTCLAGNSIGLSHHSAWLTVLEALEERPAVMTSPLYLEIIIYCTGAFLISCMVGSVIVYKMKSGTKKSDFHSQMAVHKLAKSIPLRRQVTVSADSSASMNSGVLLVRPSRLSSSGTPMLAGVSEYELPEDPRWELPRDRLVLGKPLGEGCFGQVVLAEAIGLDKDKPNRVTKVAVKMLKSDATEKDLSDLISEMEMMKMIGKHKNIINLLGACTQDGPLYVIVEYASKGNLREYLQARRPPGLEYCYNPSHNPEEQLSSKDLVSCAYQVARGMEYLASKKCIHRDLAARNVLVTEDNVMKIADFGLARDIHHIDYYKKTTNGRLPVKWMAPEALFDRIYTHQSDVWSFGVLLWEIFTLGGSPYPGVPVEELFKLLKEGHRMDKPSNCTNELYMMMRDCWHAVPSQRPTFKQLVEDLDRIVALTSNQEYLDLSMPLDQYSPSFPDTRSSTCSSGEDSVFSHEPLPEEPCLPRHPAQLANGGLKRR
wild-type un-phosphorylated FGFR3, sequence (P22607 23-806): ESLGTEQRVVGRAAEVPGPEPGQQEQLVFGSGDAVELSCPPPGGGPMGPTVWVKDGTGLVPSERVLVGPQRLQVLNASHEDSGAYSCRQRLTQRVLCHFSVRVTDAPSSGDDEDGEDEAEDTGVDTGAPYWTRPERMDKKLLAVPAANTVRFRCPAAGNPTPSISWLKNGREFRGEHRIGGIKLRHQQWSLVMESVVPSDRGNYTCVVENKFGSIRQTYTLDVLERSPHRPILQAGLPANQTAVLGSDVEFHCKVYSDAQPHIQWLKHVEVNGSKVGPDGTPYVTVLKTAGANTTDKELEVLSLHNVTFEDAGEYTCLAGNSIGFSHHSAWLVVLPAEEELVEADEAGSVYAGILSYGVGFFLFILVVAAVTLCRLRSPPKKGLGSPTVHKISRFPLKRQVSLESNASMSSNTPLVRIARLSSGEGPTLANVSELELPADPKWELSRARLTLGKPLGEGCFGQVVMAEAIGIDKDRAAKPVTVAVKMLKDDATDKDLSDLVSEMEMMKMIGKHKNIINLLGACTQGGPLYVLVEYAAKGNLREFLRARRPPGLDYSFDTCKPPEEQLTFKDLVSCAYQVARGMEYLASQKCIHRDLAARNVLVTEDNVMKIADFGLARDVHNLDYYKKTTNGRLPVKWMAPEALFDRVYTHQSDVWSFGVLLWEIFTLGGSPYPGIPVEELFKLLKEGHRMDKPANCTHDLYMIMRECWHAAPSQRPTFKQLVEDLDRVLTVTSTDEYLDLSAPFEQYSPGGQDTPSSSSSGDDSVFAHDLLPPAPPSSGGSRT
wild-type un-phosphorylated FGFR2, sequence (P21802 22-821): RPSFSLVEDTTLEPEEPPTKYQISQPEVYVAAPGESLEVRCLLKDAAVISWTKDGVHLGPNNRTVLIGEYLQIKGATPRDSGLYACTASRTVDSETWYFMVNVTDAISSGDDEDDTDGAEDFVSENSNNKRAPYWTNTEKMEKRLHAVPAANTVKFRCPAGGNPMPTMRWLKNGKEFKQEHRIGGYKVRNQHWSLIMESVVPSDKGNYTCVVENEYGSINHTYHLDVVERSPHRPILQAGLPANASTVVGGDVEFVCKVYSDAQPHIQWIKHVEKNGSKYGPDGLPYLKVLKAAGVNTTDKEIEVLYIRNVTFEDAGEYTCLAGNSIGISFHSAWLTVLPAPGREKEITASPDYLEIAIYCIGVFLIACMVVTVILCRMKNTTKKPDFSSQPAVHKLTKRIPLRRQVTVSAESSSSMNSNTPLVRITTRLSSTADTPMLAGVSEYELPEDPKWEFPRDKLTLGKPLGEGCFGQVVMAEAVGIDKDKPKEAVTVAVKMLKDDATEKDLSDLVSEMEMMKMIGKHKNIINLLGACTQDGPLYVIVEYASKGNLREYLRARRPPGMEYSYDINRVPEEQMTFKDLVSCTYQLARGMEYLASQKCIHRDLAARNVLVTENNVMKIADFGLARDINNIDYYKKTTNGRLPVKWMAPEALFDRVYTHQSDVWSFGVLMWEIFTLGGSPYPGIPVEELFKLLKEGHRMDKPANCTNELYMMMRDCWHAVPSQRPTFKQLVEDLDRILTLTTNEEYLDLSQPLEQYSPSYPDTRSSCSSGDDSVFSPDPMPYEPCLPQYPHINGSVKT

Row | SMILES | IC50 [1] [nM] | IC50 [2, 4] [nM] | IC50 [3, 5] [nM] | IC50 [2, 6] [nM] | IC50 [3] [nM] | IC50 [1, 7] [nM]
1 | Cn1cc(-c2n[nH]c3cc(Cl)c(-c4cccc5c4CC(O)C5)nc23)cn1 (single isomer, unassigned) [Example 39, 4-(6-Chloro-3-(1-methyl-1H-pyrazol-4-yl)-1H-pyrazolo[4,3-b]pyridin-5-yl)-2,3-dihydro-1H-inden-2-ol] | < 6 | 40 to 100 | 6 to 40 |  |  | 
2 | COc1cc2[nH]nc(-c3ccc(OC4CCOC4)nc3)c2nc1-c1cccc2c1CC(O)C2 (single isomer, unassigned) [Example 73, 4-(6-Methoxy-3-(6-((tetrahydrofuran-3-yl)oxy)pyridin-3-yl)-1H-pyrazolo[4,3-b]pyridin-5-yl)-2,3-dihydro-1H-inden-2-ol] | < 6 | 40 to 100 | 6 to 40 |  |  | 
3 | COc1cc2[nH]nc(-c3ccc(C45CC4CN(CCO)C5)nc3)c2nc1-c1cccc2c1CCC2 (single isomer, unassigned) [Example 194B, 2-(1-(5-(5-(2,3-Dihydro-1H-inden-4-yl)-6-methoxy-1H-pyrazolo[4,3-b]pyridin-3-yl)pyridin-2-yl)-3-azabicyclo[3.1.0]hexan-3-yl)ethan-1-ol] | < 6 |  |  | 6 to 40 | < 6 | 
4 | COc1cc2[nH]nc(-c3ccc(C45CC4CN(CCO)C5)nc3)c2nc1-c1cccc2c1CCC2 (single isomer, unassigned) [Example 194C, 2-(1-(5-(5-(2,3-Dihydro-1H-inden-4-yl)-6-methoxy-1H-pyrazolo[4,3-b]pyridin-3-yl)pyridin-2-yl)-3-azabicyclo[3.1.0]hexan-3-yl)ethan-1-ol] |  |  | < 6 | 6 to 40 |  | < 6
5 | COc1cc2[nH]nc(-c3ccc(N4CCN(C)C(=O)C4)nc3)c2nc1-c1cccc(C)c1C [Example 45, 4-(5-(5-(2,3-Dimethylphenyl)-6-methoxy-1H-pyrazolo[4,3-b]pyridin-3-yl)pyridin-2-yl)-1-methylpiperazin-2-one] | < 6 | > 100 |  |  | < 6 | 
6 | COc1cc2[nH]nc(-c3ccc(N4CCC(O)CC4)nc3)c2nc1-c1cccc(C)c1C [Example 46, 1-(5-(5-(2,3-Dimethylphenyl)-6-methoxy-1H-pyrazolo[4,3-b]pyridin-3-yl)pyridin-2-yl)piperidin-4-ol] | < 6 | > 100 |  |  | < 6 | 
7 | [2H]C([2H])([2H])Oc1cc2[nH]nc(-c3ccc(N4CCN(C)CC4)nc3)c2nc1-c1cccc(C)c1C [Example 48, 5-(2,3-Dimethylphenyl)-6-(methoxy-d3)-3-(6-(4-methylpiperazin-1-yl)pyridin-3-yl)-1H-pyrazolo[4,3-b]pyridine] | < 6 | 40 to 100 |  |  | < 6 | 
8 | COc1cc2[nH]nc(-c3ccc(N4CCC(C)(C(=O)O)CC4)nc3)c2nc1-c1cccc(C)c1C [Example 51, 1-(5-(5-(2,3-Dimethylphenyl)-6-methoxy-1H-pyrazolo[4,3-b]pyridin-3-yl)pyridin-2-yl)-4-methylpiperidine-4-carboxylic acid] | < 6 | 40 to 100 |  |  | < 6 | 
9 | COc1cc2[nH]nc(-c3ccc(N4CCC5(CC4)CNC(=O)O5)nc3)c2nc1-c1cccc(C)c1C [Example 65, 8-(5-(5-(2,3-Dimethylphenyl)-6-methoxy-1H-pyrazolo[4,3-b]pyridin-3-yl)pyridin-2-yl)-1-oxa-3,8-diazaspiro[4.5]decan-2-one] | < 6 | > 100 |  |  | < 6 | 
10 | COc1cc2[nH]nc(-c3ccc(C4CCC(C(=O)O)CC4)nc3)c2nc1-c1cccc(C)c1C (stereo not drawn) [Example 79, 4-(5-(5-(2,3-Dimethylphenyl)-6-methoxy-1H-pyrazolo[4,3-b]pyridin-3-yl)pyridin-2-yl)cyclohexane-1-carboxylic acid] | < 6 | 40 to 100 |  |  | < 6 | 
11 | COc1cc2[nH]nc(-c3ccc(N4C[C@@H](F)[C@@H](N)C4)nc3)c2nc1-c1cccc(C)c1C [Example 80, (3S,4R)-1-(5-(5-(2,3-Dimethylphenyl)-6-methoxy-1H-pyrazolo[4,3-b]pyridin-3-yl)pyridin-2-yl)-4-fluoropyrrolidin-3-amine] | < 6 | 40 to 100 |  |  | < 6 | 
12 | COc1cc2[nH]nc(-c3ccc(C4CCN(C(=O)CO)CC4)nc3)c2nc1-c1cccc2c1CC(F)C2 (stereo not drawn) [Example 82, 1-(4-(5-(5-(2-Fluoro-2,3-dihydro-1H-inden-4-yl)-6-methoxy-1H-pyrazolo[4,3-b]pyridin-3-yl)pyridin-2-yl)piperidin-1-yl)-2-hydroxyethan-1-one] | < 6 |  |  | 6 to 40 | < 6 | 

Second part, the molecule after the results:

Row | IC50 [1] [nM] | IC50 [2, 4] [nM] | IC50 [3, 5] [nM] | IC50 [2, 6] [nM] | IC50 [3] [nM] | IC50 [1, 7] [nM] | SMILES
13 | < 6 |  |  | 6 to 40 | < 6 |  | COc1cc2[nH]nc(-c3ccc(C4CC(=O)N(C)C4)nc3)c2nc1-c1cccc2c1CCC2C#N (single isomer, unassigned) [Example 75, 4-(6-Methoxy-3-(6-(1-methyl-5-oxopyrrolidin-3-yl)pyridin-3-yl)-1H-pyrazolo[4,3-b]pyridin-5-yl)-2,3-dihydro-1H-indene-1-carbonitrile]
14 |  |  | < 6 | 6 to 40 |  | < 6 | COc1cc2[nH]nc(-c3ccc(C4CC(=O)N(C)C4)nc3)c2nc1-c1cccc2c1CCC2C#N (single isomer, unassigned) [Example 76, 4-(6-Methoxy-3-(6-(1-methyl-5-oxopyrrolidin-3-yl)pyridin-3-yl)-1H-pyrazolo[4,3-b]pyridin-5-yl)-2,3-dihydro-1H-indene-1-carbonitrile]
15 | < 6 |  |  | 6 to 40 | < 6 |  | COc1cc2[nH]nc(-c3ccc(C4CCN(C(=O)[C@H](C)O)CC4)nc3)c2nc1-c1cccc2c1CC(F)C2 (single isomer, unassigned) [Example 81]
16 | < 6 |  |  | 6 to 40 | < 6 |  | COc1cc2[nH]nc(-c3ccc(C45CC4CN(C(=O)CO)C5)nc3)c2nc1-c1cccc2c1CCC2 (single isomer, unassigned) [Example 191B, 1-(1-(5-(5-(2,3-Dihydro-1H-inden-4-yl)-6-methoxy-1H-pyrazolo[4,3-b]pyridin-3-yl)pyridin-2-yl)-3-azabicyclo[3.1.0]hexan-3-yl)-2-hydroxyethan-1-one]
17 |  |  | < 6 | 6 to 40 |  | < 6 | COc1cc2[nH]nc(-c3ccc(C45CC4CN(C(=O)CO)C5)nc3)c2nc1-c1cccc2c1CCC2 (single isomer, unassigned) [Example 191C, 1-(1-(5-(5-(2,3-Dihydro-1H-inden-4-yl)-6-methoxy-1H-pyrazolo[4,3-b]pyridin-3-yl)pyridin-2-yl)-3-azabicyclo[3.1.0]hexan-3-yl)-2-hydroxyethan-1-one]
18 | < 6 | 40 to 100 |  |  | < 6 |  | COc1cc2[nH]nc(-c3cnn(Cc4ncnn4C)c3)c2nc1-c1cccc(C)c1C [Example 3, 5-(2,3-Dimethylphenyl)-6-methoxy-3-(1-((1-methyl-1H-1,2,4-triazol-5-yl)methyl)-1H-pyrazol-4-yl)-1H-pyrazolo[4,3-b]pyridine]
19 | < 6 | > 100 |  |  | < 6 |  | CC(=O)N1CCN(c2ccc(-c3n[nH]c4cc(OC(F)F)c(-c5cccc(C)c5C)nc34)cn2)CC1 [Example 6, 1-(4-(5-(6-(Difluoromethoxy)-5-(2,3-dimethylphenyl)-1H-pyrazolo[4,3-b]pyridin-3-yl)pyridin-2-yl)piperazin-1-yl)ethan-1-one]
20 | < 6 | > 100 |  |  | < 6 |  | COc1cc2[nH]nc(-c3ccc(N4CCN(C(C)=O)CC4)nc3)c2nc1-c1cccc(C)c1C [Example 43, 1-(4-(5-(5-(2,3-Dimethylphenyl)-6-methoxy-1H-pyrazolo[4,3-b]pyridin-3-yl)pyridin-2-yl)piperazin-1-yl)ethan-1-one]
21 | < 6 | > 100 |  |  | < 6 |  | COc1cc2[nH]nc(-c3ccc(N4CCC(C(=O)N(C)C)CC4)nc3)c2nc1-c1cccc(C)c1C [Example 50, 1-(5-(5-(2,3-Dimethylphenyl)-6-methoxy-1H-pyrazolo[4,3-b]pyridin-3-yl)pyridin-2-yl)-N,N-dimethylpiperidine-4-carboxamide]
22 | < 6 | 40 to 100 |  |  | < 6 |  | [2H]C([2H])([2H])c1cccc(-c2nc3c(-c4ccc(N5CCN(C)CC5)nc4)n[nH]c3cc2OC)c1C [Example 68, 6-Methoxy-5-(2-methyl-3-(methyl-d3)phenyl)-3-(6-(4-methylpiperazin-1-yl)pyridin-3-yl)-1H-pyrazolo[4,3-b]pyridine]
23 | < 6 |  |  | 6 to 40 | < 6 |  | COc1cc2[nH]nc(-c3ccc(N4CCN5C[C@H](O)C[C@H]5C4)nc3)c2nc1-c1cccc2c1CC(F)C2 (stereo partly drawn) [Example 83, (7R,8aS)-2-(5-(5-(2-Fluoro-2,3-dihydro-1H-inden-4-yl)-6-methoxy-1H-pyrazolo[4,3-b]pyridin-3-yl)pyridin-2-yl)octahydropyrrolo[1,2-a]pyrazin-7-ol]
24 | < 6 | > 100 |  |  | < 6 |  | COc1cc2[nH]nc(-c3ccc(N4CCS(=N)(=O)CC4)nc3)c2nc1-c1cccc(C)c1C [Example 86, 4-(5-(5-(2,3-Dimethylphenyl)-6-methoxy-1H-pyrazolo[4,3-b]pyridin-3-yl)pyridin-2-yl)-1-imino-1λ^6-thiomorpholine 1-oxide]
25 | < 6 | > 100 |  |  | < 6 |  | COc1cc2[nH]nc(-c3ccc(N4CCN(CCO)CC4)nc3)c2nc1-c1cccc(CC#N)c1C [Example 89, 2-(3-(3-(6-(4-(2-Hydroxyethyl)piperazin-1-yl)pyridin-3-yl)-6-methoxy-1H-pyrazolo[4,3-b]pyridin-5-yl)-2-methylphenyl)acetonitrile]

— patent publication US12083124B2 (Incyte Corporation, priority 2019, dated 2024)
